Earlier results, collected in patent US6566543B2, “2-arachidonylglycerol (2-AG)-an inhibitor of tumor necrosis factor-α and neuroprotector of brain in closed head injury” (Yissum Research Development Company of The Hebrew …, priority 2000, dated 2003).

Tests used:
cannabinoid receptors = conditions: previously shown, Ben-Shabat et al., 1998
TNF-α = conditions: astrocytes
nitric oxide release = conditions: astrocytes

| SMILES | activity in numerous in vivo and in vitro assays (including binding to the cannabinoid receptors) (cannabinoid receptors) | inhibition of TNF-α production (TNF-α) | nitric oxide release (nitric oxide release) |
| --- | --- | --- | --- |
| CCCCC/C=C\C/C=C\CCCCCCCC(=O)OC(CO)CO [2-LinoG, 2-linoleoylglycerol] | inactive | – | – |
| CCCCCCCCCCCCCCCC(=O)OC(CO)CO [2-PalmG, 2-palmitoylglycerol] | inactive | – | – |
| CCCCC/C=C\C/C=C\C/C=C\C/C=C\CCCC(=O)NCCO [Anandamide, arachidonylethanolamide] | – | relatively modest | blocked nitric oxide release |
